From US12594263B2, “CBL inhibitors and compositions for expansion of immune cells” (Nurix Therapeutics, Inc., priority 2019, dated 2026)

Test system: E.G7-OVA tumors
Assay: Oral Cbl inhibitor treatment of mice given expanded OT-1 cells
Format: in vivo, mouse
Method: Tumor volume was measured roughly every five days after cell transfer.
OT-1 cells were assessed in mouse blood 5 days and 20 days after transfer.

[1] = 5 days and 20 days after transfer (FIGS. 20A, 20B)

## C[C@H]1CCCN(Cc2cc3c(c(C(F)(F)F)c2)CN(c2cccc([C@]4(c5nncn5C)C[C@@H](C)C4)c2)C3=O)C1 [Compound 116]
[1]
  Frequency of OT-1 cells in mouse blood: increased frequency of OT-1 cells
  Persistence of OT-1 cells in mouse blood: longer persistence of OT-1 cells
Oral administration (FIG. 18)
  Anti-tumor efficacy of OT-1 cells expanded with compound 103 plus IL-2 (tumor volume): enhanced the anti-tumor efficacy
Oral administration (FIG. 19)
  Survival of mice treated with OT-1 cells expanded with compound 103 plus IL-2: enhanced survival
